# In ChEMBL document CHEMBL5257037, “Side Chain Cyclized Aromatic Amino Acids: Great Tools as Local Constraints in Peptide and Peptidomimetic Design” (J Med Chem, 2016):
# *1 amine or outer side, *2 acyl side, *3 side chain or, on linkers, in order; H or OH if unused. Where a SMILES comes first, the peptide text is derived from it. [ ]: non-standard residue; d: D form. Gly(9-fluorenyl) = N[C@H](C(=O)O)C1c2ccccc2-c2ccccc21; X1 = O=C([C@@H](N[*:1])[C@H]1CCc2ccccc21)[*:2]; Tic = O=C(O)[C@@H]1Cc2ccccc2CN1
# Key:
# B2 bradykinin receptor [1] = target: T1, B2 bradykinin receptor (Homo sapiens, UniProt P30411); experiment: Binding affinity to B2 bradykinin receptor (unknown origin)
# T1 sequence (P30411 whole entry): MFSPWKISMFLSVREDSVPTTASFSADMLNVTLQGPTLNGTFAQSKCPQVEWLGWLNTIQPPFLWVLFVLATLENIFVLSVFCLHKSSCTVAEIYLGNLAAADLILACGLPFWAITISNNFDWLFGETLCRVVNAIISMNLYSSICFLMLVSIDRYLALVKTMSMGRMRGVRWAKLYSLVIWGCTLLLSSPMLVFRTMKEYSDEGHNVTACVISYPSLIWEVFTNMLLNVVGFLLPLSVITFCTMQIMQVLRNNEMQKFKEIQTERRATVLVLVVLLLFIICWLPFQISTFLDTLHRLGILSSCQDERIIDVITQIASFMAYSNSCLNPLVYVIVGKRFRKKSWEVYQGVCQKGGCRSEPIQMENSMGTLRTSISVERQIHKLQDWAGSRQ
# B2 bradykinin receptor [2] = target: T1, B2 bradykinin receptor; experiment: Antagonist potency at B2 bradykinin receptor (unknown origin); conditions: read-out: pA2 (converted)
# [3] = target: T2, Angiotensin-converting enzyme (Homo sapiens, UniProt P12821); experiment: Inhibition of angiotensin-converting enzyme (unknown origin)
# [4] = Inhibition of farnesyltransferase (unknown origin); set-up: species or system Homo sapiens
# Substance-P receptor = Substance-P receptor (Rattus norvegicus, UniProt P14600); experiment: Inhibition of [125I]BHSP binding to neurokinin receptor 1 in rat brain synaptosomes; type: subcellular, Synaptosome
# [5] = target: T2, Angiotensin-converting enzyme; experiment: Binding affinity to angiotensin-converting enzyme (unknown origin) assessed as inhibition constant
# Neprilysin = Neprilysin (Homo sapiens, UniProt P08473); experiment: Binding affinity to neutral endopeptidase (unknown origin) assessed as inhibition constant
compound,measurement,setting,value
N=C(N)NCCC[C@@H](N)C(=O)N[C@@H](CCCNC(=N)N)C(=O)N1CCC[C@H]1C(=O)N1C[C@H](O)C[C@H]1C(=O)NCC(=O)N[C@@H](Cc1cccs1)C(=O)N[C@@H](CO)C(=O)N1Cc2ccccc2C[C@@H]1C(=O)N1Cc2ccccc2C[C@@H]1C(=O)N[C@@H](CCCNC(=N)N)C(=O)O,Ki,B2 bradykinin receptor [1]; read-out: Ki,571 nM
same,Kb,B2 bradykinin receptor [2],2510 nM
C[C@H](N[C@@H](CCc1ccccc1)C(=O)O)C(=O)N1CCc2ccccc2[C@H]1C(=O)O,IC50,[3],5.8 nM
CCC[C@H](N[C@@H](C)C(=O)N1[C@H](C(=O)O)C[C@@H]2CCCC[C@@H]21)C(=O)OCC [PERINDOPRIL],IC50,[3],3.6 nM
CSCC[C@H](NC(=O)[C@H]1Cc2ccccc2CN1C(=O)[C@H](C(C)C)N(C)C(=O)[C@H](CS)NC(=O)[C@@H](N)CCCCN)C(=O)O,IC50,[4],5 nM
CC[C@H](C)[C@H](NC(=O)CNC(=O)[C@H](Cc1ccccc1)NC(=O)[C@@H](NC(=O)[C@H](CCC(N)=O)NC(=O)[C@H](CCC(=O)O)NC(=O)[C@H](CCCCN)NC(=O)[C@@H]1CCCN1C(=O)[C@@H](N)CCCNC(=N)N)[C@H]1CCc2ccccc21)C(=O)N[C@@H](CCSC)C(=O)O (H-RPKEQ[X1]FGIM-OH),IC50,Substance-P receptor,3 nM
N=C(N)NCCC[C@@H](N)C(=O)N[C@@H](CCCNC(=N)N)C(=O)N1CCC[C@H]1C(=O)N1C[C@H](O)C[C@H]1C(=O)NCC(=O)N[C@@H](Cc1cccs1)C(=O)N[C@H]1CSSC[C@@H](C(=O)N[C@@H](CCCNC(=N)N)C(=O)O)NC(=O)[C@H](Cc2ccccc2)NC(=O)[C@H](Cc2ccccc2)NC1=O,Ki,B2 bradykinin receptor [1]; read-out: Ki,876 nM
same,Kb,B2 bradykinin receptor [2],3980 nM
O=C(O)CN1C(=O)[C@@H](N[C@@H](CCc2ccccc2)C(=O)O)CCc2ccccc21 [BENAZEPRILAT],IC50,[3],1.7 nM
N=C(N)NCCC[C@H](NC(=O)CN1Cc2ccccc2CC(NC(=O)[C@H](CO)NC(=O)[C@H](Cc2ccccc2)NC(=O)CNC(=O)[C@@H]2CCCN2C(=O)[C@@H]2CCCN2C(=O)[C@@H](N)CCCNC(=N)N)C1=O)C(=O)O (mixture of isomers),Ki,B2 bradykinin receptor [1]; read-out: pKi (converted),794 nM
O=C(O)[C@H](CCc1ccccc1)N[C@H]1Cc2ccccc2[C@H]2CCC[C@@H](C(=O)O)N2C1=O,Ki,[5],0.004 nM
same,Ki,Neprilysin,> 10 nM
N=C(N)NCCCC(NC(=O)[C@@H]1C[C@@H]2CCC[C@@H]2N1C(=O)[C@H]1Cc2ccccc2CN1C(=O)[C@H](CO)NC(=O)[C@H](Cc1cccs1)NC(=O)CNC(=O)[C@@H]1C[C@@H](O)CN1C(=O)[C@@H]1CCCN1C(=O)[C@H](CCCNC(=N)N)NC(=O)[C@H](N)CCCNC(=N)N)C(=O)O (some centres undefined),Ki,B2 bradykinin receptor [1]; read-out: Ki,0.18 nM
same,Kb,B2 bradykinin receptor [2],0.398 nM
O=C(CS)N[C@H]1Cc2ccccc2[C@H]2CCC[C@@H](C(=O)O)N2C1=O,Ki,[5],2 nM
same,Ki,Neprilysin,5 nM
N=C(N)NCCCC(NC(=O)CN1CCCCC2(CCCN2C(=O)[C@H](CO)NC(=O)[C@H](Cc2ccccc2)NC(=O)CNC(=O)[C@@H]2CCCN2C(=O)[C@@H]2CCCN2C(=O)[C@@H](N)CCCNC(=N)N)C1=O)C(=O)O (mixture of isomers; 68),Ki,B2 bradykinin receptor [1]; read-out: pKi (converted),251 nM
CC[C@H](C)[C@H](NC(=O)CNC(=O)[C@@H]1Cc2ccccc2CN1C(=O)[C@H](Cc1ccccc1)NC(=O)[C@H](CCC(N)=O)NC(=O)[C@H](CCC(=O)O)NC(=O)[C@H](CCCCN)NC(=O)[C@@H]1CCCN1C(=O)[C@@H](N)CCCNC(=N)N)C(=O)N[C@@H](CCSC)C(=O)O (H-RPKEQF[Tic]GIM-OH),IC50,Substance-P receptor,1200 nM
CSCC[C@H](NC(=O)[C@@H]1Cc2ccccc2CN1C(=O)[C@@H](NC(=O)[C@@H](N)CS)C(C)C)C(=O)O (H-CV[Tic]M-OH),IC50,[4],1 nM
N=C(N)NCCC[C@@H](N)C(=O)N[C@@H](CCCNC(=N)N)C(=O)N1CCC[C@H]1C(=O)N1C[C@H](O)C[C@H]1C(=O)NCC(=O)N[C@@H](Cc1cccs1)C(=O)N[C@@H](CO)C(=O)N1CCC[C@@]12Cc1ccccc1CN(CC(=O)N[C@@H](CCCNC(=N)N)C(=O)O)C2=O,Ki,B2 bradykinin receptor [1]; read-out: pKi (converted),3.16 nM
same,Kb,B2 bradykinin receptor [2],2000 nM
CC(C)C[C@@H](C(=O)O)N1CCO[C@@H](c2ccccc2)[C@H](NC(=O)[C@@H](S)Cc2ccccc2)C1=O,Ki,[5],50000 nM
same,Ki,Neprilysin,330 nM
N=C(N)NCCC[C@H](NC(=O)CN1Cc2ccccc2C[C@@H](NC(=O)[C@H](CO)NC(=O)[C@H](Cc2ccccc2)NC(=O)CNC(=O)[C@@H]2CCCN2C(=O)[C@@H]2CCCN2C(=O)[C@@H](N)CCCNC(=N)N)C1=O)C(=O)O,Ki,B2 bradykinin receptor [1]; read-out: pKi (converted),2510 nM
H-KCVFM-OH,IC50,[4],1000 nM
N=C(N)NCCCC(NC(=O)CN1CCCCC2(CCCN2C(=O)[C@H](CO)NC(=O)[C@H](Cc2ccccc2)NC(=O)CNC(=O)[C@@H]2CCCN2C(=O)[C@@H]2CCCN2C(=O)[C@@H](N)CCCNC(=N)N)C1=O)C(=O)O (mixture of isomers; 67),Ki,B2 bradykinin receptor [1]; read-out: pKi (converted),1260 nM
H-RPKEQFFGIM-OH,IC50,Substance-P receptor,0.64 nM
C[C@H](N[C@@H](CCc1ccccc1)C(=O)O)C(=O)N1Cc2ccccc2[C@H]1C(=O)O,IC50,[3],44 nM
C[C@H](C(=O)N[C@@H](CCCNC(=N)N)C(=O)O)N1Cc2ccccc2C[C@@H](NC(=O)[C@H](CO)NC(=O)[C@H](Cc2ccccc2)NC(=O)CNC(=O)[C@@H]2CCCN2C(=O)[C@@H]2CCCN2C(=O)[C@@H](N)CCCNC(=N)N)C1=O,Ki,B2 bradykinin receptor [1]; read-out: pKi (converted),501 nM
CC[C@H](C)[C@H](NC(=O)CNC(=O)[C@@H](NC(=O)[C@H](Cc1ccccc1)NC(=O)[C@H](CCC(N)=O)NC(=O)[C@H](CCC(=O)O)NC(=O)[C@H](CCCCN)NC(=O)[C@@H]1CCCN1C(=O)[C@@H](N)CCCNC(=N)N)C1c2ccccc2-c2ccccc21)C(=O)N[C@@H](CCSC)C(=O)O (H-RPKEQF[Gly(9-fluorenyl)]GIM-OH),IC50,Substance-P receptor,3 nM
CSCC[C@H](NC(=O)[C@H]1Cc2ccccc2CN1C(=O)[C@@H]1CCCN1C(=O)[C@H](CS)NC(=O)[C@@H](N)CCCCN)C(=O)O,IC50,[4],100000 nM
N=C(N)NCCC[C@@H](N)C(=O)N[C@@H](CCCNC(=N)N)C(=O)N1CCC[C@H]1C(=O)N1C[C@H](O)C[C@H]1C(=O)NCC(=O)N[C@@H](Cc1cccs1)C(=O)N[C@@H](CO)C(=O)N[C@@H]1Cc2ccccc2CN(CC(=O)N[C@@H](CCCNC(=N)N)C(=O)O)C1=O,Ki,B2 bradykinin receptor [1]; read-out: pKi (converted),316 nM
same,Kb,B2 bradykinin receptor [2],2510 nM
CC[C@H](C)[C@H](NC(=O)CNC(=O)[C@H](Cc1ccccc1)NC(=O)[C@@H]1Cc2ccccc2CN1C(=O)[C@H](CCC(N)=O)NC(=O)[C@H](CCC(=O)O)NC(=O)[C@H](CCCCN)NC(=O)[C@@H]1CCCN1C(=O)[C@@H](N)CCCNC(=N)N)C(=O)N[C@@H](CCSC)C(=O)O (H-RPKEQ[Tic]FGIM-OH),IC50,Substance-P receptor,2400 nM
CSCC[C@H](NC(=O)[C@H]1Cc2ccccc2CN1C(=O)[C@@H](NC(=O)[C@H](CS)NC(=O)[C@@H](N)CCCCN)C(C)C)C(=O)O,IC50,[4],100000 nM
CSCC[C@H](NC(=O)[C@@H]1Cc2ccccc2CN1C(=O)[C@@H](NC(=O)[C@H](CS)NC(=O)[C@@H](N)CCCCN)C(C)C)C(=O)O,IC50,[4],20 nM
CSCC[C@H](NC(=O)[C@@H]1Cc2ccccc2CN1C(=O)[C@@H](NC(=O)[C@H](CS)NC(C)=O)C(C)C)C(=O)O (Ac-CV[Tic]M-OH),IC50,[4],11 nM
O=C(O)CN1Cc2ccccc2C[C@H](N[C@@H](CCc2ccccc2)C(=O)O)C1=O,Ki,[5],10 nM
CSCC[C@H](NC(=O)[C@@H]1Cc2ccccc2CN1C(=O)[C@@H](NC[C@@H](N)CS)C(C)C)C(=O)O,IC50,[4],0.6 nM
N=C(N)NCCC[C@@H](N)C(=O)N[C@@H](CCCNC(=N)N)C(=O)N1CCC[C@H]1C(=O)N1C[C@H](O)C[C@H]1C(=O)NCC(=O)N[C@@H](Cc1cccs1)C(=O)N[C@@H](CO)C(=O)N1CCC[C@]12Cc1ccccc1CN(CC(=O)N[C@@H](CCCNC(=N)N)C(=O)O)C2=O,Ki,B2 bradykinin receptor [1]; read-out: pKi (converted),25.1 nM
same,Kb,B2 bradykinin receptor [2],3160 nM
CCOC(=O)[C@H](CCc1ccccc1)N[C@@H](C)C(=O)N1[C@H](C(=O)O)C[C@@H]2CCC[C@@H]21,IC50,[3],4.2 nM
N=C(N)NCCC[C@@H](N)C(=O)N[C@@H](CCCNC(=N)N)C(=O)N1CCC[C@H]1C(=O)N1C[C@H](O)C[C@H]1C(=O)NCC(=O)N[C@@H](Cc1cccs1)C(=O)N[C@@H](CO)C(=O)N1Cc2ccccc2C[C@@H]1C(=O)N1Cc2ccccc2C[C@H]1C(=O)N[C@@H](CCCNC(=N)N)C(=O)O,Ki,B2 bradykinin receptor [1]; read-out: Ki,0.38 nM
same,Kb,B2 bradykinin receptor [2],0.794 nM
CC(C)C[C@@H](C(=O)O)N1Cc2ccccc2C[C@H](NC(=O)[C@@H](S)Cc2ccccc2)C1=O,Ki,Neprilysin,0.4 nM
CSCC[C@H](NC(=O)C1CC=CCN1C(=O)[C@@H](NC[C@@H](N)CS)C(C)C)C(=O)O (some centres undefined),IC50,[4],270 nM
N=C(N)NCCC[C@@H](N)C(=O)N[C@@H](CCCNC(=N)N)C(=O)N1CCC[C@H]1C(=O)N1C[C@H](O)C[C@H]1C(=O)NCC(=O)N[C@@H](Cc1cccs1)C(=O)N[C@@H](CO)C(=O)N[C@H]1Cc2ccccc2CN(CC(=O)N[C@@H](CCCNC(=N)N)C(=O)O)C1=O,Ki,B2 bradykinin receptor [1]; read-out: pKi (converted),200 nM
CSCC[C@H](NC(=O)[C@@H]1Cc2ccccc2CN1C[C@@H](NC(=O)[C@@H](N)CS)C(C)C)C(=O)O,IC50,[4],0.37 nM
CSCC[C@H](NC(=O)[C@H](Cc1ccccc1)NC(=O)[C@@H](NC(=O)[C@H](CS)NC(C)=O)C(C)C)C(=O)O (Ac-CVFM-OH),IC50,[4],250 nM
